Measured values from patent US20220241249A1, “PHARMACEUTICAL COMPOSITION AND KIT CONTAINING NOVEL PENAM DERIVATIVE OR SALT THEREOF AND ONE OR MORE COMPOUNDS SELECTED FROM beta-LACTAMASE INHIBITORY COMPOUND AND ANTIBACTERIAL COMPOUND OR SALTS THEREOF” (priority 2019, published 2022).
Like-named read-outs stand apart in the source and are kept apart here.

Columns and labels:
Assay in all cases: MIC of test compound alone or with β-lactamase inhibitor at 4 μg/mL
Assay type in all cases: cell-based
[1] = test system: Escherichia coli TK-1747 strain producing CTX-M-15 (strain A)
Method: (§1) By using a broth microdilution method, the combinational effect of a test compound and a β-lactamase inhibitor was evaluated.
(§2) The evaluation test for antibacterial activity was performed in the same manner as in Test Example 1.
Escherichia coli TK-1747 strain producing CTX-M-15 (hereinafter, called strain A),

[2] = test system: Escherichia coli TK-3113 strain producing IMP-8 (strain D)
Method: as §1, §2
Escherichia coli TK-3113 strain producing IMP-8 (hereinafter, called strain D),
(§3) An antibacterial activity evaluation test was performed in the same manner as in Test Example 6.
(§4) As the bacterial strain, the strains B, C, and D producing β-lactamase and a Klebsiella pneumoniae Y-1069 strain (hereinafter, called strain F) producing OXA-48 and CTX-M-15 were used.

[3] = test system: Klebsiella pneumoniae Y-1020 strain producing KPC-3 and SHV-12 (strain B); details: for MIC: Strain B; for antibacterial activity in combination with a β-lactamase inhibitor versus without: for all the bacterial strains (strains A to E), summary of Tables 43 to 47
Method: as §1, §2

[4] = test system: Klebsiella pneumoniae Y-1133 strain producing NDM-1, OXA-48, and CTX-M-15 (strain C)
Method: as §1, §2
Klebsiella pneumoniae Y-1133 strain producing NDM-1, OXA-48, and CTX-M-15 (hereinafter, called strain C),
as §3, §4

[5] = test system: Escherichia coli TK-1765 strain producing CMY-2 (strain E)
Method: as §1, §2
Escherichia coli TK-1765 strain producing CMY-2 (hereinafter, called strain E)

[6] = test compound alone (β-lactamase inhibitor N/A)

SMILES	MIC ([3]; AVI added at 4 μg/mL) [µg/mL]	MIC ([3]; NAC added at 4 μg/mL) [µg/mL]	MIC ([3]; ZID added at 4 μg/mL) [µg/mL]	MIC [3, 6] [µg/mL]	antibacterial activity in combination with a β-lactamase inhibitor versus without [3]	MIC ([2]; AVI added at 4 μg/mL) [µg/mL]	MIC ([2]; NAC added at 4 μg/mL) [µg/mL]	MIC ([2]; ZID added at 4 μg/mL) [µg/mL]	MIC [2, 6] [µg/mL]	MIC ([4]; AVI added at 4 μg/mL) [µg/mL]	MIC ([4]; NAC added at 4 μg/mL) [µg/mL]	MIC ([4]; ZID added at 4 μg/mL) [µg/mL]	MIC [4, 6] [µg/mL]	MIC [5, 6] [µg/mL]	MIC ([5]; with AVI at 4 μg/mL) [µg/mL]	MIC ([5]; with SBT at 4 μg/mL) [µg/mL]	MIC ([5]; with TAZ at 4 μg/mL) [µg/mL]	MIC ([5]; with VAB at 4 μg/mL) [µg/mL]	other results
CO/N=C(\C(=O)N[C@@H]1C(=O)N2C(C(=O)O)=C(COC(C)=O)CS[C@H]12)c1csc(N)n1 [CTX, cefotaxime sodium, reference compound]	–	–	–	–	–	–	–	–	–	–	–	–	–	–	–	–	–	–	MIC ([1]; Escherichia coli, test compound alone (β-lactamase inhibitor N/A), read-out: MIC): > 128 µg/mL
CC(C)(O/N=C(\C(=O)N[C@@H]1C(=O)N2C(C(=O)[O-])=C(C[n+]3ccccc3)CS[C@H]12)c1csc(N)n1)C(=O)O [CAZ, ceftazidime hydrate, reference compound]	–	–	–	–	–	–	–	–	–	–	–	–	–	–	–	–	–	–	MIC ([2]; Escherichia coli, AVI added at 4 μg/mL): > 128 µg/mL; MIC ([2]; Escherichia coli, test compound alone (β-lactamase inhibitor N/A)): > 128 µg/mL
CC(C)(O/N=C(\C(=O)N[C@@H]1C(=O)N2C[C@@](C(=O)O)(N3CCN(NC(=O)C(=O)c4ccc(O)c(O)c4Cl)C3=O)S[C@H]12)c1nc(N)sc1Cl)C(=O)O [Compound D]	0.25	<0.015	<0.015	2	higher antibacterial activity	0.5	0.06	0.03	1	0.12	<0.015	<0.015	0.5	0.5	0.03	0.25	0.06	0.12	MIC ([5]; with CVA at 4 μg/mL): 0.25 µg/mL
Nc1nc(/C(=N/OC2(C(=O)O)CC2)C(=O)N[C@@H]2C(=O)N3C[C@@](C(=O)O)(N4CCN(NC(=O)C(=O)c5ccc(O)c(O)c5Cl)C4=O)S[C@H]23)cs1 [Compound E]	0.25	<0.015	<0.015	4	higher antibacterial activity	0.12	<0.015	<0.015	0.25	0.12	<0.015	<0.015	1	1	0.06	0.5	0.25	0.12	MIC ([3]; VAB added at 4 μg/mL): 1 µg/mL; MIC ([1]; AVI added at 4 μg/mL): <0.015 µg/mL; MIC ([1]; CVA added at 4 μg/mL): <0.015 µg/mL; MIC ([1]; NAC added at 4 μg/mL): <0.015 µg/mL; MIC ([1]; SBT added at 4 μg/mL): <0.015 µg/mL; MIC ([1]; TAZ added at 4 μg/mL): <0.015 µg/mL; MIC ([1]; ZID added at 4 μg/mL): <0.015 µg/mL; MIC [1, 6]: 0.06 µg/mL
